# US7101878B1 (Agouron Pharmaceuticals, Inc., priority 1998, dated 2006)
# Where two headings read alike, the source gives them in different places.
# Tests used:
# bovine GnRH receptor = target: T1, bovine GnRH receptor (Bos taurus, UniProt P32236); test: Radioligand binding, 125I-GnRH-A, bovine pituitary membranes
# T1 construct: membranes were prepared from bovine pituitary; from tissue; host or cells: bovine pituitary
# T1 sequence (P32236 1-328): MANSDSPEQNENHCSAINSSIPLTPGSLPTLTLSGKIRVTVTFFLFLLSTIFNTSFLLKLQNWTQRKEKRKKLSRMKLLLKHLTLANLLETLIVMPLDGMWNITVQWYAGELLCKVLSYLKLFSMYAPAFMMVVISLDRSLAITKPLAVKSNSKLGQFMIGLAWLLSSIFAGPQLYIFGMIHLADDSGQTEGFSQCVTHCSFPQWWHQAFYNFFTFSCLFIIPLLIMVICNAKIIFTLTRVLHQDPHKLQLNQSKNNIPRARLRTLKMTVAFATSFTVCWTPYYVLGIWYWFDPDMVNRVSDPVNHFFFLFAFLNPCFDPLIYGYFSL
# Description: (§1) All compounds were diluted in 1% DMSO (final assay concentration) in binding assay buffer. […] Reactions were terminated by rapid filtration onto 96-well Packard GF/C filters soaked in 0.1% polyethyleneimine. Filters were washed three times with PBS buffer, dried and counted on a Packard Topcount by liquid scintillation counting.
# (§2) Assay conditions were identical for assessing compound activities at other species. […] IC50 values for control peptides and test compounds were calculated utilizing GraphPad Prism™ software.
# (§3) The reaction mixture was vortexed and incubated for 1 min at room temperature. After one min, the mixture was vortexed and allowed to incubate for an additional minute. 2 ml of 0.5 M acetic acid/1% BSA was added to the reaction tube and the mixture was added to a C18 Sep-Pak cartridge. The cartridge was washed with subsequent washes of 5 ml H2O and 5 ml 0.5M acetic acid and then eluted with 5×1 ml of 60% CH3CN/40% 0.5M acetic acid. The eluate was diluted with 3× volume of HPLC buffer A (0.1% TFA in H2O) and loaded onto a C18 column. […] The radioactive fractions (750 ed/fraction) are collected into clean polypropylene tubes containing 100 μl of 10% BSA. Fractions were assessed for biological activity by radioligand binding.
# human GnRH receptor = target: T2, human GnRH receptor (Homo sapiens, UniProt P30968); test: Radioligand binding, 125I-GnRH-A displacement, membranes of HEK 293 cells with human GnRH receptor
# T2 construct: expressed in transfected cells; host or cells: HEK 293 (hGnRH-R/293, from Dr. Stuart Sealfon)
# T2 sequence (P30968 1-328): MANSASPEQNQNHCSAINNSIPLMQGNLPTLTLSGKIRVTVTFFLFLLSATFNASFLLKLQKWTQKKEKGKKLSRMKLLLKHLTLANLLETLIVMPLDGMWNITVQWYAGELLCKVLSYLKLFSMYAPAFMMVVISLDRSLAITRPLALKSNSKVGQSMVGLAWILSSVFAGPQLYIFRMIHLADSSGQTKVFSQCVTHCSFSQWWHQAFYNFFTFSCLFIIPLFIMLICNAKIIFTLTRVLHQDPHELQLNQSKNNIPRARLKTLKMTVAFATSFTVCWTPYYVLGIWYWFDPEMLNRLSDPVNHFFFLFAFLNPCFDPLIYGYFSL
# Outline: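 Bound tracer was separated by filtration through polyethyleneimine-soaked GF/C filters and counted by liquid scintillation. IC50 from curve fitting; other species were tested under the same conditions.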
# [1] = Pharmacokinetic studies / bioavailability in rats; format: in vivo, rat; details: rat male; for half-life: iv, 10 mg/kg
# mouse GnRH receptor = target: T3, mouse GnRH receptor (Mus musculus, UniProt Q01776); test: Radioligand binding, 125I-GnRH-A, 293 cells expressing mouse GnRH receptors
# T3 construct: expressed in transfected cells; host or cells: 293 cells
# T3 sequence (Q01776 1-327): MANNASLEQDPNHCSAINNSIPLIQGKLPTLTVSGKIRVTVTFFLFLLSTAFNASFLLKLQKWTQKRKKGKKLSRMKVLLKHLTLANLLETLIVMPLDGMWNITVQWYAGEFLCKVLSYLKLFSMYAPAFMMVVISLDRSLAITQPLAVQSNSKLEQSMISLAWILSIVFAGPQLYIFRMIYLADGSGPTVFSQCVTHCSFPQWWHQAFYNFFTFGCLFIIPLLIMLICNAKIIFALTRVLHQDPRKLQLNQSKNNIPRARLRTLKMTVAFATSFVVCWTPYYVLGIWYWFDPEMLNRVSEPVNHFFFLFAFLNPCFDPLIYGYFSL
# Outline: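 Bound label captured on 0.1% polyethyleneimine-treated GF/C filters, washed three times with PBS, counted. IC50 derived; identical set-up for every species.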
# rat GnRH receptor = target: T4, rat GnRH receptor (Rattus norvegicus, UniProt P30969); test: Radioligand binding, 125I-GnRH-A, rat pituitary membranes; parameters: membranes were prepared from rat pituitary; from tissue; host or cells: rat pituitary
# T4 sequence (P30969 1-327): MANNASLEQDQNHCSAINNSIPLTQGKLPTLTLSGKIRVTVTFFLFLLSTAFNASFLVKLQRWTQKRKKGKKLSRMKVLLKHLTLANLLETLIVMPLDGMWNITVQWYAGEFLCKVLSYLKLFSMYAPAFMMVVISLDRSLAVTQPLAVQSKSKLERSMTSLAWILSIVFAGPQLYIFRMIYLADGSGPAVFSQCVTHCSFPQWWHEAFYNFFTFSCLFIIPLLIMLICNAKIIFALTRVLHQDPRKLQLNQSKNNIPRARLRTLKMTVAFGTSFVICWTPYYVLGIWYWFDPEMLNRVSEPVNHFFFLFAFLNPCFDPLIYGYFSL
# Description: as §1, §2, §3
# [2] = Metabolism rate, pmol/min/mg at 1 μM, human; format: in vitro ADME; details: 1 μM compound
# [3] = Metabolism rate, pmol/min/mg at 1 μM, rat male; format: in vitro ADME; details: 1 μM compound
# [4] = means ± SE of at least three experiments performed in duplicate, read-out: Bovine IC50
# [5] = means ± SE of at least three experiments performed in duplicate, read-out: Human IC50
# [6] = means ± SE of at least three experiments performed in duplicate, read-out: Mouse IC50
# [7] = means ± SE of at least three experiments performed in duplicate, read-out: Rat IC50
# [8] = male, rat, plasma, po, 20 mg/kg, p.o. 20 mg/kg, vehicle per footnote (DMSO/cremophor/saline)
IC50 (human GnRH receptor; read-out: hGnRH IC50) [nM],IC50 (mouse GnRH receptor; read-out: mGnRH IC50) [nM],IC50 (rat GnRH receptor; read-out: rGnRH IC50) [nM],IC50 (bovine GnRH receptor; read-out: bGnRH IC50) [nM],Human pmol/min/mg 1 μM [2] [pmol/min/mg],Rat male pmol/min/mg 1 μM [3] [pmol/min/mg],SMILES,further results
80,80,30,,,,Cc1cc2c(cc1Cc1ccc(C(=O)NCc3cccc(C)c3C)o1)C(C)(C)CCC2(C)C [Compound 17],"IC50 (bovine GnRH receptor; [4]): 670 ± 120 nM; IC50 (human GnRH receptor; [5]): 80 ± 20 nM; half-life ([1]; male, rat, plasma): 132 min; IC50 (mouse GnRH receptor; [6]): 80 ± 20 nM; IC50 (rat GnRH receptor; [7]): 30 ± 4 nM"
230,370,150,1520,,,Cc1ccccc1CNC(=O)c1ccc(Cc2cc3c(cc2C)C(C)(C)CCC3(C)C)o1 [Compound 50],
540,1100,310,1710,,,Cc1cc2c(cc1Cc1ccc(C(=O)NCC3CCCC(CNC(=N)N)C3)o1)C(C)(C)CCC2(C)C (stereo not drawn) [Compound 22],
190,830,220,2340,,,Cc1cc2c(cc1Cc1ccc(C(=O)NCc3cccc(Cl)c3)o1)C(C)(C)CCC2(C)C [Compound 39],
80,42,27,,241,1282,Cc1cc2c(cc1Cc1ccc(C(=O)NCC3CCC(CNc4nccc(NCC5CCCO5)n4)CC3)o1)C(C)(C)CCC2(C)C (stereo not drawn) [Compound 92],
,,,,,,"CCNC(=O)[C@@H]1CCCN1C(=O)[C@H](CCCNC(=N)N)NC(=O)[C@H](CC(C)C)NC(=O)[C@@H](C)NC(=O)[C@H](Cc1ccc(O)cc1)NC(=O)[C@H](CO)NC(=O)[C@H](Cc1c[nH]c2ccccc12)NC(=O)[C@H](Cc1c[nH]cn1)NC(=O)[C@@H]1CCC(=O)N1 [GnRH-A, [des-Gly^10,D-Ala^6]GnRH ethylamide, reference compound]",IC50 (bovine GnRH receptor; [4]): 0.3 ± 0.05 nM; IC50 (human GnRH receptor; [5]): 0.34 ± 0.06 nM; IC50 (mouse GnRH receptor; [6]): 0.22 ± 0.03 nM; IC50 (rat GnRH receptor; [7]): 0.49 ± 0.1 nM
24,400,270,,867,2995,Cc1cc2c(cc1Cc1ccc(C(=O)NC[C@H]3CC[C@H](C(N)=O)CC3)o1)C(C)(C)CCC2(C)C [Compound 156],
280,660,270,2900,,,Cc1cc2c(cc1Cc1ccc(C(=O)NCc3ccc(F)cc3F)o1)C(C)(C)CCC2(C)C [Compound 52],
550,560,150,760,,,Cc1cc2c(cc1Cc1ccc(C(=O)NCc3cccc(CNC(=N)N)c3)o1)C(C)(C)CCC2(C)C [Compound 24],
290,,,,,,COc1cccc(CNC(=O)c2ccc(Cc3cc4c(cc3C)C(C)(C)CCC4(C)C)o2)c1OC [Compound 15],IC50 (bovine GnRH receptor; [4]): 1000 ± 240 nM; IC50 (human GnRH receptor; [5]): 100 ± 17 nM; IC50 (mouse GnRH receptor; [6]): 220 ± 50 nM; IC50 (rat GnRH receptor; [7]): 70 ± 16 nM
150,36,22,,241,4481,COCCNc1nccc(NCc2cccc(CNC(=O)c3ccc(Cc4cc5c(cc4C)C(C)(C)CCC5(C)C)o3)c2)n1 [Compound 154],
410,950,260,940,,,Cc1cc2c(cc1Cc1ccc(C(=O)NCc3ccc(CNC(=N)N)cc3)o1)C(C)(C)CCC2(C)C [Compound 25],
65,5.2,7.2,,225,3043,Cc1cc2c(cc1Cc1ccc(C(=O)NCc3cccc(CNc4ncc(C)c(NCC5CCCO5)n4)c3)o1)C(C)(C)CCC2(C)C (stereo not drawn) [Compound 151],
320,630,330,4000,,,Cc1cc2c(cc1Cc1ccc(C(=O)NCc3cccnc3)o1)C(C)(C)CCC2(C)C [Compound 43],"IC50 (human GnRH receptor; second value marked * (mostly in parentheses), asterisk not explained, read-out: hGnRH IC50, value marked *): 130 nM"
250,630,270,2930,,,Cc1cc2c(cc1Cc1ccc(C(=O)NCc3cccc(F)c3)o1)C(C)(C)CCC2(C)C [Compound 53],
45,16,5,,793,6642,COc1cc(CO)cc(OC)c1NC(=O)c1ccc(Cc2cc3c(cc2C)C(C)(C)CCC3(C)C)o1 [Compound 159],
40,130,90,,182,1692,Cc1cc2c(cc1Cc1ccc(C(=O)Nc3ccc4[nH]ccc4c3)o1)C(C)(C)CCC2(C)C [Compound 96],
125,34,60,380,,,Cc1cc2c(cc1Cc1ccc(C(=O)Nc3cccc4ncccc34)o1)C(C)(C)CCC2(C)C [Compound 64],
31,21,60,,283,3356,Cc1cc2c(cc1Cc1ccc(C(=O)NCc3cccc4ccccc34)o1)C(C)(C)CCC2(C)C [Compound 95],
90,1010,890,,2716,8125,COC(=O)[C@H]1CC[C@H](CNC(=O)c2ccc(Cc3cc4c(cc3C)C(C)(C)CCC4(C)C)o2)CC1 [Compound 68],
,4,3,,273,2341,Cc1cc2c(cc1Cc1ccc(C(=O)NCc3cccc(CNc4ccnc(NC[C@@H]5CCCO5)n4)c3)o1)C(C)(C)CCC2(C)C [Compound 176],T1/2 [1]: 2.8 h
230,130,130,,407,1087,COc1cc(OC)c(NC(=O)c2ccc(Cc3c(C)cc(C)cc3C)o2)c(OC)c1 [Compound 168],"half-life ([1]; male, rat, plasma): 108 min; Cmax [1, 8]: 300 nM; Tmax [1, 8]: 1 h; Fp.o. ([1]; p.o. 20 mg/kg, vehicle per footnote (DMSO/cremophor/saline)): 1% (20 mg/kg)^6"
